Source: US9758401B2, “Digestion of biosolids in wastewater” (BCR ENVIRONMENTAL CORPORATION, priority 2009, dated 2017)

How the values were obtained:
fecal coliform = assay: Secondary sludge full-scale test: fecal coliform reduction by chlorine dioxide; type: cell-based; settings: for Fecal coliform: secondary sludge, 10 minutes contact time
Procedure: Treatment of non-digested wastewater sludge with chlorine dioxide allows the material to meet Class B pathogen reduction requirements prior to digestion by reducing the fecal coliform concentrations to levels much lower than the Class B standard (<2,000,000 fecal coliform bacteria) with less than 15 minutes contact time. The resulting biosolids cake has no odor.
In this test, chlorine dioxide was generated on-site, and was injected (at varying concentrations) into a 100 gpm sludge flow passing through a 4 inch diameter pipe. The pipe length was sufficient to allow 10 minutes of contact time between the sludge and the chlorine dioxide prior to dewatering the material.

[1] = system: Waste activated sludge (WAS); assay: Waste activated sludge solubilization by chlorine dioxide in digesters (soluble COD, NH4, PO4, volatile solids)
Procedure: Waste activated sludge (WAS) was obtained from a local municipal WWTP which removes cBOD only and uses a pure oxygen system. In order to achieve similar experiment conditions and be consistent with the previous pilot experiment, the solids concentration was adjusted to approximately 7 g/L. Three digesters were set up and treated with chlorine dioxide dosages of 100, 150 and 200 mg/L respectively. The digesters were operated for 24 hours. Samples were taken at time intervals of 10 min, 1 h, 6 h, 12 h and 24 h to represent different contact time.
This confirmed that chlorine dioxide contact time is the key factor for WAS solubilization. The increased soluble COD concentration can be expressed as 10-11% of TCOD which is quite significant. It was also observed that soluble COD concentration at contacting time of 6 hr was approximately 55-66% of the soluble COD at time 24 hrs. […] The increase of soluble COD corresponded to the volatile solids destruction of 4-6% with different chlorine dioxide treatment dosage.
This is considered insignificant. The PO4 increase was much higher and equaled 16 to 28.3 mg P/L after 24 h. Higher phosphorus than nitrogen release can be attributed to the chlorine dioxide treatment which breaks down the cell walls resulting in the release of unbound orthophosphate PO4—P. The nitrogen in the cells is in the form of organic nitrogen (amino acids) and enzymes are required to convert organic nitrogen to ammonia nitrogen. The low pH resulting from the chlorine dioxide treatment may have deactivated the enzyme activity, therefore no/insignificant NH4—N increase was detected.

anaerobic digester = assay: Methane production in anaerobic digestion of chlorine dioxide pretreated WAS; settings: versus non-pretreated WAS, measured
Procedure: Treatment of non-digested wastewater sludge with chlorine dioxide to solubilized the sludge and make nutrients bio-available and then feeding this material into an established anaerobic digester once the chlorine dioxide residual has been reduced improves gas (methane) production in an anaerobic digester. A generally accepted estimate for methane production at 35° C. is 0.25 kg methane per kg COD consumed. One kmol of methane is equivalent with a mass of 16 kg. Per definition, the COD equivalent of 1 kmol of methane is the mass of the amount of oxygen required for complete oxidation according to the formula: CH4+2O2→CO2+2H2O The mass of the 2O2 is 2 kmol of oxygen or 64 kg. Thus 64 kg Oxygen Demand is equivalent with 16 kg of methane, or 1 kg of oxygen demand (COD) is equivalent with 16/64=0.25 kg methane.
This increase in soluble COD represents 10-11% of the total COD concentration of the sludge, and represents a 2000% increase in soluble COD. The inventors believe that the higher the s-COD the higher capacity for methane production. The resulting increase in methane production as a result of this enhancement of anaerobic digestion has been measured as a greater than 50% increase utilizing this method, and is expected to be in the range of 100% or more over non-pretreated WAS. […]

[2] = chlorine dioxide 100-200 mg/L, 24 h

Compound: [O][Cl+][O-] [chlorine dioxide]
- fecal coliform concentrations after treatment (Class B standard) (fecal coliform; non-digested wastewater sludge, less than 15 minutes contact time): < 2,000,000 fecal coliform bacteria
- Fecal coliform (fecal coliform; ClO2 dose rate 64 mg/L): 1,800 MPN/g
- Fecal coliform (fecal coliform; ClO2 dose rate 80 mg/L): BDL
- Fecal coliform (fecal coliform; ClO2 dose rate 96 mg/L): BDL
- Fecal coliform (fecal coliform; ClO2 dose rate 128 mg/L): BDL
- Fecal coliform (fecal coliform; ClO2 dose rate 160 mg/L): BDL*
- soluble COD at contact time 6 hr as share of soluble COD at 24 hrs ([1]; chlorine dioxide 100-200 mg/L): 55-66%
- increase in soluble COD [1, 2]: 2000%
- increase in soluble COD as share of total COD (TCOD) [1, 2]: 10-11%
- volatile solids destruction ([1]; different chlorine dioxide treatment dosage (100-200 mg/L)): 4-6%
- increase in methane production (anaerobic digester): greater than 50%
